Results on four compounds are retold here after patent US20040259815A1, “Anti-proliferative composition” (priority 2001, published 2004).

The subject of the assay is human prostate cancer cell line PC3. Kind of assay: Proliferation of PC3 cells after 4 days exposure (BrdU incorporation and WST-1 assays). The note with it: PC-3, 96 h, component alone, PC3 cells exposed for 4 days. It counts as cell-based. Background: Incorporation of labelled thymidine or its analogues reports DNA synthesis.

Molecules are shown by their SMILES.

Method: Stock solutions were prepared as follows: Genistein and silymarin were dissolved in ethanol. Daidzein and equol were dissolved in dimethyl sulfoxide (DMSO). Lycopene was dissolved in 0.02M HCl
The PC3 cell line (American Type Culture Collection, Mannassas, USA), a highly resistant prostate cancer cell line originating from a metastasis lesion of bone, was maintained as monolayer cultures in RPMI medium (Gibco, Life technologies BV, Breda, Netherlands) supplemented with 5% FCS (Gibco). The cells were grown mycoplasm free in plastic tissue culture flasks (Falcon, Micronic, Lelystad, Netherlands). Cultures were kept in a 5% CO2 humidified atmosphere, at a temperature of 37° C. Media were replaced every 2 or 3 days, and cells were subcultured at weekly intervals using a 0.05% trypsin and 0.01% EDTA.
The PC3 cells were seeded into flat-bottomed 96-well tissue culture treated plates (Falcon, Micronic, Lelystad, Netherlands) at a density of 16000 cells per well. After 24 h incubation, vehicle controls, test components or combinations of the test components were added to the medium (20 μl added to 200 μl medium in well). The components were tested in combination to determine additional or synergistic effects. PC3 cells were exposed for 4 days.
Cell proliferation was quantified by measuring the incorporation of 5-bromo-2′-deoxyuridine (BrdU) during DNA synthesis and by cleavage of tetrazolium salt (WST-1) in viable cells by mitochondrial dehydrogenases. The calorimetric BrdU (immunoassay) and colorimetric WST-1 assay were performed in accordance with the manufacturer's instructions (Roche Diagnostics Mannheim, Germany). Briefly, BrdU-assay: After the exposure period, the cells were treated with BrdU-labeling solution for 3 hours. After labeling, cells were washed with PBS, fixed for 30 minutes and washed again with PBS. After 90 minutes incubation with the anti-BrdU-POD working solution, the cells were washed 3 times. After addition of the substrate, the reaction was stopped with H2SO4. The absorbance was measured at 450 nm with a reference wavelength at 650 nm. WST-1 assay: After the exposure period, the cells were washed with PBS and treated with WST-1 diluted in medium (1:10). After 3 hours incubation, the absorbance was measured at 450 nm with a reference at 595 nm.

As to `CC(C)=CCC/C(C)=C/C=C/C(C)=C/C=C/C(C)=C/C=C/C=C(C)/C=C/C=C(C)/C=C/C=C(\C)CCC=C(C)C` [lycopene], for the setting “53 μg/ml, stated as not significant, read-out: inhibition of growth of the PC3 cells”, the inhibition at 53 µg/mL came to 7.3 ± 2.7%. Consider `O=c1c(-c2ccc(O)cc2)coc2cc(O)ccc12` [daidzein], for which the inhibition at 25 µg/mL (25 μg/ml, stated as not significant, read-out: inhibition of growth of the PC3 cells) stood at 10 ± 6%.

In the case of `Oc1ccc([C@H]2COc3cc(O)ccc3C2)cc1` [equol], the inhibition at 26 µg/mL (26 μg/ml, read-out: inhibition of proliferation of human prostate cancer cell line PC3 (mean±s.e.)) amounted to 30.1 ± 4.4%. Consider `O=c1c(-c2ccc(O)cc2)coc2cc(O)cc(O)c12` [Genistein, genistein], for which the inhibition at 27 µg/mL (27 μg/ml, read-out: inhibition of proliferation of human prostate cancer cell line PC3 (mean±s.e.)) is 20.2 ± 4.6%.
